Patent US20250368638A1, “BICYCLIC INHIBITORS OF NICOTINAMIDE […], COMPOSITIONS AND USES THEREOF” (President and Fellows of Harvard College, priority 2021, published 2025)

How the values were obtained:
[1] = test system: Ion Channels, GPCR, Transporter, Kinases, Enzyme and Nuclear Hormone Receptor; assay: Off-target safety panel screening; conditions: at 10 μM
Procedure: An off-target safety panel screening for 11 was conducted. The class of target teste included Ion Channels, GPCR, Transporter, Kinases, Enzyme and Nuclear Hormone Receptor.

hERG = hERG (Homo sapiens, UniProt Q12809); assay: hERG safety evaluation by manual Patch-Clamp system; type: cell-based
Sequence of hERG (Q12809 whole entry): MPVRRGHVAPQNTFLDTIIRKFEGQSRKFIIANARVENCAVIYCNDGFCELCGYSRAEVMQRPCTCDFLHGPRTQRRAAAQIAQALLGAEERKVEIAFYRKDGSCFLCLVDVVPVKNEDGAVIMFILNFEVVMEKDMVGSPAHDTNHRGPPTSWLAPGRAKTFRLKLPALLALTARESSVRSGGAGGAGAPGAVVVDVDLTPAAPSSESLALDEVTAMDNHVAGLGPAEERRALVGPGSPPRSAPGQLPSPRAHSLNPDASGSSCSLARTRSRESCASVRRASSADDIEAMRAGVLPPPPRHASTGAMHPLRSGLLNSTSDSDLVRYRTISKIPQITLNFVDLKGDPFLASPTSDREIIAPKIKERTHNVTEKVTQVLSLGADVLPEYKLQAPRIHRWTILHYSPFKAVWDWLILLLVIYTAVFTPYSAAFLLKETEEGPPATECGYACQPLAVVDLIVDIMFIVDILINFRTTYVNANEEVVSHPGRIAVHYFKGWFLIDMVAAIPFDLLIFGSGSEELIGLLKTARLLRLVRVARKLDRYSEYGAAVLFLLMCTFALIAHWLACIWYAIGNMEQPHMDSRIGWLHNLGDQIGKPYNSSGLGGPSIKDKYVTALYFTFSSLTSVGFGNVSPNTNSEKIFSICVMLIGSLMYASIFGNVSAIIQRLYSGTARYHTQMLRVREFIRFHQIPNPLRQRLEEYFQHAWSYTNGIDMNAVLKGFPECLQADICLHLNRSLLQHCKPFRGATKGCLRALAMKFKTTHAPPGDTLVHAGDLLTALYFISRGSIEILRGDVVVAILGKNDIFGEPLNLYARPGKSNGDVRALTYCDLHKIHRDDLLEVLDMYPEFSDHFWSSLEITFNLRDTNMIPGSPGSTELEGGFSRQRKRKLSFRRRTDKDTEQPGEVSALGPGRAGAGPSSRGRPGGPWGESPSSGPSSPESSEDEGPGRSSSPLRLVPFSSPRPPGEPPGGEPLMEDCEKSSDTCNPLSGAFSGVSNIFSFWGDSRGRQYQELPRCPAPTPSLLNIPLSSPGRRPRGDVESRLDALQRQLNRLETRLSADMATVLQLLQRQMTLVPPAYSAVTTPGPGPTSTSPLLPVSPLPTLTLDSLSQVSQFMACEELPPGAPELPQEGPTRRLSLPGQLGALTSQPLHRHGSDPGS
Procedure: Cell lines and cell culture: hERG stably expressed HEK 293 cell line (Cat #K1236) was purchased from Invitrogen. The cells are cultured in 85% DMEM, 10% dialyzed FBS, 0.1 mM NEAA, 25 mM HEPES, 100 U/mL Penicillin-Streptomycin, 5 μg/mL Blasticidin and 400 μg/mL Geneticin. Cells are split using TrypLE™ Express about three times a week, and maintained between ˜40% to ˜80% confluence. Before the assay, the cells were onto the coverslips at 5×10^5 cells/per 6 cm cell culture dish and induced with doxycycline at 1 μg/mL for 48 hours.
[…]; 2) Intracellular solution (in mM): 140 KCl, 2 MgCl2, 10 EGTA, 10 HEPES and 5 MgATP (pH adjusted to 7.35 with KOH).
Experimental procedure: 1) Remove the coverslip from the cell culture dish and place it on the microscope stage in bath chamber; 2) Locate a desirable cell using the ×10 objective. Locate the tip of the electrode under the microscope using the ×10 objective by focusing above the plane of the cells. […]
Data analysis: Data that met the above criteria for hERG current quality were further analyzed as the following steps: 1) Percent hERG current inhibition was calculated using the following equation; 2) The dose response curve of test compounds was plotted with percentage of hERG current inhibition against the concentration of test compounds using Graphpad Prism 8.0, and fit to a sigmoid dose-response curve with a variable slope.

[2] = Metabolic stability in pooled male mouse liver microsomes
Procedure: A master solution was prepared according to the following table.
40 μL of 10 mM NADPH solution was added to each well. The final concentrations of NADPH was 1 mM. The mixture was pre-warmed at 37° C. for 5 minutes. The negative control samples were prepared by replacing NADPH solutions with 40 μL of ultra-pure H2O. The negative control was used to exclude the misleading factor that resulted from instability of chemical itself. Samples with NADPH were prepared in duplicate. Negative controls were prepared in singlet.
The reaction was started with the addition of 4 μL of 200 μM control compound or test compound solutions. […] Samples were centrifuged at 3, 220 g for 40 minutes. Aliquot of 90 μL of the supernatant was mixed with 90 μL of ultra-pure H2O and then used for LC-MS/MS analysis.
For metabolite standard samples: 1 μL of 400 μM working solution was added to 89 μL master solution following by adding 400 μL of cold acetonitrile with internal standard (IS) (100 nM alprazolam, 200 nM Imipramine, 200 nM labetalol and 2 μM ketoprofen). Then 10 μL of 10 mM NADPH solution or ultra-pure H2O was added to the mixture. Samples were centrifuged at 3,220 g for 40 minutes to precipitate protein. Aliquots of 90 μL supernatant diluted by 90 μL of water was used for LC-MS/MS analysis.

K562 (ATCC) cells = assay: Cellular potency: 1-MNA levels in K562 cells after compound incubation; type: cell-based; conditions: Homo sapiens, 24 h incubation
Procedure: Cellular potency was measured in K562 (ATCC) cells via measuring (1-methyl nicotinamide) 1-MNA levels after compound incubation at varying concentrations overnight. Cells were plated at 1 million per well and were incubated for 24 h with compounds at indicated concentrations. Cells were collected by pipetting and extracted with 200 ul acetonitrile containing internal deuterated standard 10 ng/ml d4-1-MNA. Samples were analyzed on an Agilent 64-60 Triple Quad LC/MS with Agilent 1290 Infinity HPLC using a Restek Allure 5 um PPFP column 150 mm×2.1. The mobile phase A was 2.5 mM ammonium formate in water, and mobile phase B was methanol with 0.1% formic acid, delivered at 0.25 mL/min. The capillary voltage was set to 2400V and the nozzle at 300V. The drying gas temperature was 240° C., the drying gas flow rate was 4 L/min, and the nebulizer pressure was 40 psi. The mass spectrometer was run in multiple reaction monitoring mode. Mass transitions were m/z 137.1 à 94.1 for 1-MNA and m/z 141.1 à 98.1 for d4-MNA.

[3] = male, mouse, pooled liver microsomes

With C[C@@H]1Cc2cc(C(N)=O)cnc2N1 [Compound 11, (2R)-2-methyl-2,3-dihydro-1H-pyrrolo[2,3-b]pyridine-5-carboxamide] the Off-target activity [1] was “did not show significant off-target activity”, the inhibition at 5 min, 30 µM (hERG; human, HEK293 cells stably expressing hERG, pH 7.35, at 30 μM) was 15% and the IC50 (hERG; manual Patch-Clamp, hERG stably expressed HEK 293 cell line) was > 30000 nM. For the same compound, the “Predicted hepatic CL” value ([2]; Mouse liver microsomes) was <18.76 mL/min/kg, the “Remaining (%) at 60 minutes” value ([2]; Mouse liver microsomes) was 93.24% and the CLint scaled at 2 μM [2, 3] was < 23.7 mL/min/kg. For the same compound, the half-life at 2 μM [2, 3] was > 4.26 h, the microsomal CLint at 2 μM [2, 3] was < 5.42 µL/min/mg and the IC50 (K562 (ATCC) cells) was 38 nM.
